Data on 15 compounds can be found in US20110124588A1, “SYNERGISTIC ACTIVE INGREDIENT COMBINATIONS” (Bayer Cropscience AG, priority 2008, published 2011).

Read-outs that look alike come from different tables or passages of the source.

In one assay the test system is Spodoptera frugiperda. As to the kind of experiment: Spodoptera frugiperda larvae test (sprayed cabbage leaves). The assay is classed as in vivo, army worm (Spodoptera frugiperda) larvae. An excerpt: (§1) The expected activity of a given combination of two active compounds can be calculated as follows, according to S. R. Colby, Weeds 15 (1967), 20-22:
(§2) X is the kill rate, expressed as a percentage of the untreated control, when employing active compound A at an application rate of m g/ha or in a concentration of m ppm, Y is the kill rate, expressed as a percentage of the untreated control, when employing active compound B at an application rate of n g/ha or in a concentration of n ppm and E is the kill rate, expressed as a percentage of the untreated control, when employing active compounds A and B at application rates of m and n g/ha or in a concentration of m and n ppm, then
(§3) If the actual kill rate exceeds the calculated value, the kill of the combination is superadditive, i.e. a synergistic effect is present. In this case, the actually observed kill rate must exceed the value calculated using the above formula for the expected kill rate (E).
(§4) solvents: 78 parts by weight of acetone • • 1.5 parts by weight of dimethylformamide emulsifier: 0.5 part by weight of alkylaryl polyglycol ether
(§5) To produce a suitable preparation of active compound, 1 part by weight of active compound is mixed with the stated amounts of solvents and emulsifier, and the concentrate is diluted with emulsifier-containing water to the desired concentration.
Cabbage leaves (Brassica oleracea) are treated by spraying with the active compound preparation of the desired concentration and are populated with larvae of the army worm (Spodoptera frugiperda) while the leaves are still moist.
After the desired period of time, the kill in % is determined 100% means that all caterpillars have been killed; 0% means that none of the caterpillars have been killed. The kill rates determined are entered into Colby's formula.

A further assay relates to Tetranychus urticae. As to the kind of experiment: Tetranychus urticae test (OP-resistant/spray treatment). The class given is in vivo, greenhouse red spider mite (Tetranychus urticae).
Description: as §1, §2, §3, §4, §5
Discs of bean leaves (Phaseolus vulgaris) which are infested by all stages of the greenhouse red spider mite (Tetranychus urticae) are sprayed with an active compound preparation of the desired concentration.
After the desired period of time, the activity in % is determined 100% means that all spider mites have been killed; 0% means that none of the spider mites have been killed.

Another assay relates to Myzus persicae. As to the kind of experiment: Myzus persicae test (spray treatment of infested cabbage leaves). The assay is classed as in vivo, green peach aphid (Myzus persicae). The following applies: for Kill in % after 6 d: single active compound. The method, then:
as §3, §4
After the desired period of time, the kill in % is determined 100% means that all aphids have been killed; 0% means that none of the aphids have been killed. The kill rates determined are entered into Colby's formula.

A further assay deals with Phaedon cochleariae. Put plainly: Phaedon cochleariae larvae test (sprayed cabbage leaves). The assay is classed as in vivo, mustard beetle (Phaedon cochleariae) larvae. On the procedure:
as §3
Solvents: 78 parts by weight of acetone • • 1.5 parts by weight of dimethylformamide Emulsifier: 0.5 part by weight of alkylaryl polyglycol ether
After the desired period of time, the kill in % is determined 100% means that all beetle larvae have been killed; 0% means that none of the beetle larvae have been killed. The kill rates determined are entered into Colby's formula.

The mark [1] stands for this setting: single active compound, 4 g/ha, after 6 d.
[2] abbreviates: Myzus persicae, 144 h, read-out: Kill in % after 6 d.
[3] abbreviates: Tetranychus urticae, 144 h, read-out: Kill in % after 6 d.
Where [4] appears, read: Spodoptera frugiperda, 48 h, read-out: Kill in % after 2 d.
Where [5] appears, read: Tetranychus urticae, 48 h, read-out: Kill in % after 2 d.
The mark [6] stands for this setting: Myzus persicae, 24 h, read-out: Kill in % after 1 d.
The mark [7] stands for this setting: Phaedon cochleariae, 144 h, single active compound, 100 g/ha, 6 d, read-out: Kill in % after 6 d.
Where [8] appears, read: Phaedon cochleariae, 144 h, single active compound, 6 d, read-out: Kill in % after 6 d.

Regarding spinosad, the “Kill in % after 6 d” value in the assay on Spodoptera frugiperda (single active compound, 0.8 g/ha) came out at 50%; with Tetranychus urticae (setting [1]), 20%.
In the case of `CC1=NNC(=O)N(/N=C/c2cccnc2)C1` [pymetrozine], in the assay with Myzus persicae (setting [2]), the pest or weed control at 0.16 g/ha was 0% and the pest or weed control at 0.8 g/ha is 60%. For the same compound, in the assay with Tetranychus urticae (setting [3]), the pest or weed control at 100 g/ha was found to be 0%.
As to abamectin, the “Kill in % after 6 d” value in the assay on Myzus persicae (0.032 g/ha) is 0%; in the assay on Phaedon cochleariae (single active compound, 0.16 g/ha, 6 d), 0%. For the same compound, the “Kill in % after 2 d” value in the assay on Tetranychus urticae (single active compound, 0.032 g/ha, after 2 d) stood at 0%.
In the case of `O=C(NC(=O)c1c(F)cccc1F)Nc1ccc(OC(F)(F)C(F)OC(F)(F)F)c(Cl)c1` (stereo not drawn) [novaluron], in the assay on Spodoptera frugiperda (setting [4]), the pest or weed control at 0.8 g/ha worked out at 33%. Besides, the pest or weed control at 4 g/ha in the assay on Myzus persicae (setting [2]) stood at 0%. Moreover, the pest or weed control at 20 g/ha in the assay on Tetranychus urticae (setting [5]) was 0%.
With `Cc1ccc(/N=C/N(C)/C=N/c2ccc(C)cc2C)c(C)c1` [amitraz], the pest or weed control at 0.8 g/ha in the assay on Myzus persicae (setting [6]) was 0%. In addition, in the assay on Myzus persicae (setting [2]), the pest or weed control at 4 g/ha was determined as 0%. In the assay on Tetranychus urticae (setting [3]), the pest or weed control at 20 g/ha was determined as 80%.
As to `Cc1nn(C)c(/C(OC(=O)C(C)(C)C)=C(\C#N)c2ccc(C(C)(C)C)cc2)c1C` [cyenopyrafen, (1E)-2-cyano-2-[4-(1,1-dimethylethyl)phenyl]-1-(1,3,4-trimethyl-1H-pyrazol-5-yl)ethenyl 2,2-dimethylpropanoate], the pest or weed control at 0.8 g/ha with Tetranychus urticae (setting [5]) amounted to 70%. Moreover, in the assay on Phaedon cochleariae (setting [7]), the pest or weed control at 100 g/ha is 0%.
Regarding `CSC(=O)O/C(=C(/C#N)c1ccc(Cl)cc1)c1ccccc1C(F)(F)F` [IKA 2002], the “Kill in % after 6 d” value worked out at 0% in the assay on Spodoptera frugiperda (single active compound, 100 g/ha); 70% in the assay with Tetranychus urticae (setting [1]); 0% in the assay on Phaedon cochleariae (single active compound, 100 g/ha, 6 d).
emamectin benzoate: the “Kill in % after 2 d” value with Spodoptera frugiperda (single active compound, 0.8 g/ha, 2 d) turned out to be 83%. In addition, the “Kill in % after 6 d” value with Myzus persicae (0.0064 g/ha) is on record as 0%; in the assay on Tetranychus urticae (single active compound, 0.032 g/ha, after 6 d), 0%.
On to `Cc1cc(C)c([S+]([O-])CC(F)(F)F)cc1-n1cnc(C(F)(F)F)n1` (stereo not drawn) [II-29-31, 1-{2,4-dimethyl-5-[(2,2,2-trifluoroethyl)sulphinyl]phenyl}-3-(trifluoromethyl)-1H-1,2,4-triazole], for which the pest or weed control at 0.8 g/ha with Tetranychus urticae (Tetranychus urticae, 144 h, single active compound, 0.8 g/ha, after 6 d, read-out: Kill in % after 6 d) came to 60%.
For `COCCOC(=O)C(C#N)(C(=O)c1ccccc1C(F)(F)F)c1ccc(C(C)(C)C)cc1` (stereo not drawn) [cyflumetofen, 2-methoxyethyl alpha-cyano-alpha-[4-(1,1-dimethylethyl)phenyl]-beta-oxo-2-(trifluoromethyl)benzenepropanoate], the pest or weed control at 0.8 g/ha in the assay on Tetranychus urticae (setting [5]) stood at 50%. Further, in the assay on Phaedon cochleariae (setting [7]), the pest or weed control at 100 g/ha stood at 0%.
On to `CCOCn1c(-c2ccc(Cl)cc2)c(C#N)c(Br)c1C(F)(F)F` [chlorfenapyr], for which the pest or weed control at 4 g/ha is 67% in the assay on Spodoptera frugiperda (setting [4]); 50% in the assay with Tetranychus urticae (setting [5]); 83% in the assay on Phaedon cochleariae (Phaedon cochleariae, 144 h, single active compound, 4 g/ha, 6 d, read-out: Kill in % after 6 d). Moreover, the pest or weed control at 0.8 g/ha in the assay on Phaedon cochleariae (Phaedon cochleariae, 144 h, single active compound, 0.8 g/ha, 6 d, read-out: Kill in % after 6 d) was found to be 0%.
`CC1(C)C(C=C(Cl)Cl)C1C(=O)OC(C#N)c1ccc(F)c(Oc2ccccc2)c1` (stereo not drawn) [β-cyfluthrin, betacyfluthrin]: the pest or weed control at 0.16 g/ha with Spodoptera frugiperda (Spodoptera frugiperda, 144 h, read-out: Kill in % after 6 d) came out at 0%. For the same compound, in the assay with Myzus persicae (setting [2]), the pest or weed control at 0.0064 g/ha stood at 0% and the pest or weed control at 0.032 g/ha came to 0%. Besides, in the assay with Phaedon cochleariae (Phaedon cochleariae, 144 h, single active compound, 0.16 g/ha, 6 d, read-out: Kill in % after 6 d), the pest or weed control at 0.16 g/ha was found to be 0%.
As to `CCc1nn(C)c(C(=O)NCc2ccc(C(C)(C)C)cc2)c1Cl` [tebufenpyrad], in the assay on Myzus persicae (setting [2]), the pest or weed control at 0.16 g/ha was determined as 0% and the pest or weed control at 0.8 g/ha came to 0%. Moreover, in the assay with Tetranychus urticae (setting [3]), the pest or weed control at 4 g/ha came to 40%. For the same compound, in the assay on Phaedon cochleariae (setting [8]), the pest or weed control at 20 g/ha stood at 0%.
On to `CN/C(=N\[N+](=O)[O-])NCC1CCOC1` (stereo not drawn) [dinotefuran], for which the pest or weed control at 0.8 g/ha in the assay with Myzus persicae (setting [6]) came to 0%; with Phaedon cochleariae (Phaedon cochleariae, 144 h, read-out: Kill in % after 6 d), 0%. For the same compound, in the assay on Tetranychus urticae (setting [5]), the pest or weed control at 20 g/ha amounted to 0%.
For `CC(C)c1cc(Oc2ccccc2)cc(C(C)C)c1NC(=S)NC(C)(C)C` [diafenthiuron], the pest or weed control at 4 g/ha in the assay on Tetranychus urticae (Tetranychus urticae, 48 h, single active compound, 4 g/ha, after 2 d, read-out: Kill in % after 2 d) was 0%. For the same compound, the pest or weed control at 20 g/ha in the assay with Phaedon cochleariae (setting [8]) was found to be 0%.
